This note sets out measurements from patent US20240228482A1, “COMPOUNDS, COMPOSITIONS AND METHODS OF TREATING CANCER” (HOTSPOT THERAPEUTICS, INC., priority 2021, published 2024).

T1 sequence (Q13191 whole entry): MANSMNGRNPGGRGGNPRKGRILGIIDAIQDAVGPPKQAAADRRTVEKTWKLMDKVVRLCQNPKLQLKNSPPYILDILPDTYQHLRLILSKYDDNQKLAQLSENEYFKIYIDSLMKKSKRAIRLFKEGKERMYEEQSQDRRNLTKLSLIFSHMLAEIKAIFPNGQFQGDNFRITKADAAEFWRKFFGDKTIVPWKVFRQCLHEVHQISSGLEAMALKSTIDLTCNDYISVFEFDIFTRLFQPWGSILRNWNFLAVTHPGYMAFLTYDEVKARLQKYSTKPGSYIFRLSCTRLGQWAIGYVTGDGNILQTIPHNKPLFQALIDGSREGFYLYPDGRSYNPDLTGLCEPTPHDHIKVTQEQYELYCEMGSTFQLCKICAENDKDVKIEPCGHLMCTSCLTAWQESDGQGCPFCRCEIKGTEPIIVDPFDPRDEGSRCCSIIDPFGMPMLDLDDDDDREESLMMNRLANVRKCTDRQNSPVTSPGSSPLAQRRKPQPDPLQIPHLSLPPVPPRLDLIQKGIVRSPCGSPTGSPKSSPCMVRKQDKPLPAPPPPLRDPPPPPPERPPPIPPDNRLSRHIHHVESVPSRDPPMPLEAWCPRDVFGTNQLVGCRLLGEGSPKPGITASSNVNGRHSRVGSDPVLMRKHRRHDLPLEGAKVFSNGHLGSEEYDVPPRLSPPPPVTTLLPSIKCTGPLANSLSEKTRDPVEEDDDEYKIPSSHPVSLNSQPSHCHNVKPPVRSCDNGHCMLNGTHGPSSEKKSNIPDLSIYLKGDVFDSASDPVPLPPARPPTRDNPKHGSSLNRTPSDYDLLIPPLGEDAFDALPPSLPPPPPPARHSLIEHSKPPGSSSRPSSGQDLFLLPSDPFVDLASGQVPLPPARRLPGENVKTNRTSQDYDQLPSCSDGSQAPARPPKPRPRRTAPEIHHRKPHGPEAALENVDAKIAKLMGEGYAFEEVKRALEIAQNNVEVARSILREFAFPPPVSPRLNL

The assay addresses T1, CBL-B (Homo sapiens, UniProt Q13191).
T1 construct: GST
Put plainly: CBL-B TR-FRET IC50 screening (E1/E2 ubiquitination, Biotin-Ubiquitin, Anti GST-Tb donor / Streptavidin-d2 acceptor). Type of assay: biochemical. Particulars: second part of Table 2 (head 'Patent Cmpd No / Updated Activity'); same CBL-B TR-FRET IC50 bins A-F; read-out: Updated Activity. (In general: Time-resolved FRET reads energy transfer from a long-lived donor to a nearby acceptor.)
Take `COC(=O)N1CC[C@@H](c2cc(C(F)(F)F)c3cn(-c4cccc([C@H](c5nncn5C)C5CCC5)c4)c(=O)n3c2)C1` (single isomer, unassigned) [Compound 409]: the IC50 was less than 0.1 µM. The same measure for `COCC(COC)[C@H](c1cccc(-n2cc3c(C(F)(F)F)cc(CN4CCC[C@H](C)C4)cn3c2=O)c1)c1nncn1C` (single isomer, unassigned) [Compound 410]: more than 10 µM; for `COCC(COC)[C@@H](c1cccc(-n2cc3c(C(F)(F)F)cc(CN4CCC[C@H](C)C4)cn3c2=O)c1)c1nncn1C` (single isomer, unassigned) [Compound 411]: more than 10 µM. The figure for `C[C@H]1CCCN(Cc2cc(C(F)(F)F)c3cn(-c4cccc([C@]5(c6nncn6C)C[C@@](C)(O)C5)c4)c(=O)n3c2)C1` (single isomer, unassigned) [Compound 417] is less than 0.1 µM; for `C[C@H]1CCCN(Cc2cc(C(F)(F)F)c3cn(-c4cccc([C@]5(c6nncn6C)C[C@](C)(O)C5)c4)c(=O)n3c2)C1` (single isomer, unassigned) [Compound 418] it is 3 to 10 µM; for `Cc1cn(CC#N)nc1[C@@H](c1cccc(-n2cc3c(C(F)(F)F)cc(CN4CCC[C@H](C)C4)cn3c2=O)c1)C1CCC1` (single isomer, unassigned) [Compound 419] it is more than 10 µM. The same measure for `Cc1cn(CC#N)nc1[C@H](c1cccc(-n2cc3c(C(F)(F)F)cc(CN4CCC[C@H](C)C4)cn3c2=O)c1)C1CCC1` (single isomer, unassigned) [Compound 420]: more than 10 µM. With `CC(=O)N1CC[C@H](c2cc(C(F)(F)F)c3cn(-c4cccc([C@H](c5nncn5C)C5CCC5)c4)c(=O)n3c2)C1` (single isomer, unassigned) [Compound 421], the IC50 is less than 0.1 µM. The same measure for `CC(=O)N1CC[C@@H](c2cc(C(F)(F)F)c3cn(-c4cccc([C@H](c5nncn5C)C5CCC5)c4)c(=O)n3c2)C1` (single isomer, unassigned) [Compound 422]: less than 0.1 µM; for `CCn1cnnc1[C@@H](c1cccc(-n2cc3c(C(F)(F)F)cc(CN4CCC[C@H](C)C4)cn3c2=O)c1)C1CCC1` (single isomer, unassigned) [Compound 423]: more than 10 µM; for `C[C@H]1CCCN(Cc2cc(C(F)(F)F)c3cn(-c4cccc([C@H](c5nncn5C5CC5)C5CCC5)c4)c(=O)n3c2)C1` (single isomer, unassigned) [Compound 424]: more than 10 µM.

Take `CC(C)n1cnnc1[C@@H](c1cccc(-n2cc3c(C(F)(F)F)cc(CN4CCC[C@H](C)C4)cn3c2=O)c1)C1CCC1` (single isomer, unassigned) [Compound 425]: the IC50 is more than 10 µM. For `CCn1cnnc1[C@H](c1cccc(-n2cc3c(C(F)(F)F)cc(CN4CCC[C@H](C)C4)cn3c2=O)c1)C1CCC1` (single isomer, unassigned) [Compound 426], the IC50 was more than 10 µM. The figure for `C[C@H]1CCCN(Cc2cc(C(F)(F)F)c3cn(-c4cccc([C@@H](c5nncn5C5CC5)C5CCC5)c4)c(=O)n3c2)C1` (single isomer, unassigned) [Compound 427] is more than 10 µM; for `CC(C)n1cnnc1[C@H](c1cccc(-n2cc3c(C(F)(F)F)cc(CN4CCC[C@H](C)C4)cn3c2=O)c1)C1CCC1` (single isomer, unassigned) [Compound 428] it is more than 10 µM. In the case of `C[C@H]1CCCN(Cc2cc(C(F)(F)F)c3cn(-c4cccc([C@H](c5nncn5C)[C@H]5C[C@H](O)C5)c4)c(=O)n3c2)C1` (single isomer, unassigned) [Compound 435], the IC50 is more than 10 µM. The same measure for `C[C@H]1CCCN(Cc2cc(C(F)(F)F)c3cn(-c4cccc([C@@H](c5nncn5C)[C@H]5C[C@@H](O)C5)c4)c(=O)n3c2)C1` (single isomer, unassigned) [Compound 436]: more than 10 µM.

As for `C[C@H]1CCCN(Cc2cc(C(F)(F)F)c3cn(-c4cccc([C@H](c5nncn5C)[C@H]5C[C@@H](O)C5)c4)c(=O)n3c2)C1` (single isomer, unassigned) [Compound 437], the IC50 was less than 0.1 µM. The same measure for `C[C@H]1CCCN(Cc2cc(C(F)(F)F)c3cn(-c4cccc([C@@H](c5nncn5C)[C@H]5C[C@H](O)C5)c4)c(=O)n3c2)C1` (single isomer, unassigned) [Compound 438]: less than 0.1 µM; for `CO[C@]1(C)C[C@](c2cccc(-n3cc4c(C(F)(F)F)cc(CN5CCC[C@H](C)C5)cn4c3=O)c2)(c2nncn2C)C1` (single isomer, unassigned) [Compound 439]: 0.1 to 0.3 µM. For `CO[C@]1(C)C[C@@](c2cccc(-n3cc4c(C(F)(F)F)cc(CN5CCC[C@H](C)C5)cn4c3=O)c2)(c2nncn2C)C1` (single isomer, unassigned) [Compound 440], the IC50 was more than 10 µM. The same measure for `Cn1cnnc1[C@H](c1cc(-c2ccncn2)cc(-n2cc3c(C(F)(F)F)cccn3c2=O)c1)C1CCC1` (single isomer, unassigned) [Compound 441]: more than 10 µM; for `Cn1cnnc1[C@@H](c1cc(-c2ccncn2)cc(-n2cc3c(C(F)(F)F)cccn3c2=O)c1)C1CCC1` (single isomer, unassigned) [Compound 442]: more than 10 µM; for `Cn1cnnc1[C@H](c1cc(-c2ccnnc2)cc(-n2cc3c(C(F)(F)F)cccn3c2=O)c1)C1CCC1` (single isomer, unassigned) [Compound 443]: more than 10 µM. The same measure for `Cn1cnnc1[C@H](c1cc(-c2ccncc2)cc(-n2cc3c(C(F)(F)F)cccn3c2=O)c1)C1CCC1` (single isomer, unassigned) [Compound 445]: more than 10 µM; for `Cn1cnnc1[C@@H](c1cc(-c2ccncc2)cc(-n2cc3c(C(F)(F)F)cccn3c2=O)c1)C1CCC1` (single isomer, unassigned) [Compound 446]: more than 10 µM.

Regarding `Cn1cnnc1[C@H](c1cc(-c2cncnc2)cc(-n2cc3c(C(F)(F)F)cccn3c2=O)c1)C1CCC1` (single isomer, unassigned) [Compound 447], the IC50 is more than 10 µM. The same measure for `Cn1cnnc1[C@@H](c1cc(-c2cncnc2)cc(-n2cc3c(C(F)(F)F)cccn3c2=O)c1)C1CCC1` (single isomer, unassigned) [Compound 448]: more than 10 µM. The same measure for `Cn1cnnc1[C@H](c1cc(C#N)cc(-n2cc3c(C(F)(F)F)cccn3c2=O)c1)C1CCC1` (single isomer, unassigned) [Compound 452]: more than 10 µM; for `Cn1cnnc1[C@@H](c1cc(C#N)cc(-n2cc3c(C(F)(F)F)cccn3c2=O)c1)C1CCC1` (single isomer, unassigned) [Compound 453]: 0.301 to 1 µM. The figure for `Cn1cnnc1[C@H](c1cc(-c2cnoc2)cc(-n2cc3c(C(F)(F)F)cccn3c2=O)c1)C1CCC1` (single isomer, unassigned) [Compound 454] is 1 to 3 µM; for `Cn1cnnc1[C@@H](c1cc(-c2cnoc2)cc(-n2cc3c(C(F)(F)F)cccn3c2=O)c1)C1CCC1` (single isomer, unassigned) [Compound 455] it is more than 10 µM. For the compound `Cn1cnnc1[C@H](c1cc(-c2cnsc2)cc(-n2cc3c(C(F)(F)F)cccn3c2=O)c1)C1CCC1` (single isomer, unassigned) [Compound 456], the IC50 is more than 10 µM. The same measure for `Cn1cnnc1[C@@H](c1cc(-c2cnsc2)cc(-n2cc3c(C(F)(F)F)cccn3c2=O)c1)C1CCC1` (single isomer, unassigned) [Compound 457]: more than 10 µM; for `Cn1cnnc1[C@H](c1cc(-c2ccns2)cc(-n2cc3c(C(F)(F)F)cccn3c2=O)c1)C1CCC1` (single isomer, unassigned) [Compound 458]: 3 to 10 µM; for `Cn1cnnc1[C@@H](c1cc(-c2ccns2)cc(-n2cc3c(C(F)(F)F)cccn3c2=O)c1)C1CCC1` (single isomer, unassigned) [Compound 459]: more than 10 µM. The figure for `Cn1cnnc1[C@H](c1cc(-c2ccsn2)cc(-n2cc3c(C(F)(F)F)cccn3c2=O)c1)C1CCC1` (single isomer, unassigned) [Compound 460] is more than 10 µM; for `Cn1cnnc1[C@@H](c1cc(-c2ccsn2)cc(-n2cc3c(C(F)(F)F)cccn3c2=O)c1)C1CCC1` (single isomer, unassigned) [Compound 461] it is more than 10 µM; for `C[C@H]1CCCN(Cc2cc(C(F)(F)F)c3cn(-c4cccc([C@H](c5nncn5C(F)F)C5CCC5)c4)c(=O)n3c2)C1` (single isomer, unassigned) [Compound 462] it is more than 10 µM.

Regarding `C[C@H]1CCCN(Cc2cc(C(F)(F)F)c3cn(-c4cccc([C@@H](c5nncn5C(F)F)C5CCC5)c4)c(=O)n3c2)C1` (single isomer, unassigned) [Compound 463], the IC50 was more than 10 µM. The figure for `C[C@@H]1CN(Cc2cc(C(F)(F)F)c3cn(-c4cccc(C5(c6nncn6C)CC6(CC6)C5)c4)c(=O)n3c2)CCC1(F)F` (single isomer, unassigned) [Compound 464] is less than 0.1 µM; for `C[C@H]1CN(Cc2cc(C(F)(F)F)c3cn(-c4cccc(C5(c6nncn6C)CC6(CC6)C5)c4)c(=O)n3c2)CCC1(F)F` (single isomer, unassigned) [Compound 465] it is less than 0.1 µM.

As to `C[C@H]1CCCN(Cc2cc(C(F)(F)F)c3cn(-c4cccc([C@H](c5nncn5C)C5(O)CCC5)c4)c(=O)n3c2)C1` (single isomer, unassigned) [Compound 474], the IC50 is less than 0.1 µM. As for `C[C@H]1CCCN(Cc2cc(C(F)(F)F)c3cn(-c4cccc([C@@H](c5nncn5C)C5(O)CCC5)c4)c(=O)n3c2)C1` (single isomer, unassigned) [Compound 475], the IC50 lay in the range of 3 to 10 µM.

Consider `C[C@H]1CCCN(Cc2cc(C(F)(F)F)c3cn(-c4cc(F)cc([C@H](c5nncn5C)C5COC5)c4)c(=O)n3c2)C1` (single isomer, unassigned) [Compound 476], for which the IC50 lay in the range of 0.301 to 1 µM. For the compound `C[C@H]1CCCN(Cc2cc(C(F)(F)F)c3cn(-c4cc(F)cc([C@@H](c5nncn5C)C5COC5)c4)c(=O)n3c2)C1` (single isomer, unassigned) [Compound 477], the IC50 is less than 0.1 µM.
